# PubChem BioAssay (NCI)
#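 GI50 = concentration required for 50% inhibition of growth. TGI marks complete inhibition of growth.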
# Assays:
# Test in all cases: growth of human tumour cells (NCI), 384-well format
# [1] = tested on: CAKI-1 renal
# [2] = tested on: M14 melanoma
# [3] = tested on: SK-OV-3 ovarian
# [4] = tested on: HOP-62 NSCLC
# [5] = tested on: HCT-15 colon
# [6] = tested on: SF-295 CNS
# [7] = tested on: MCF7 breast
# [8] = tested on: RPMI-8226 leukemia
# [9] = tested on: NCI-H226 lung
# [10] = tested on: PC-3 prostate
# [11] = tested on: OVCAR-5 ovarian
# [12] = tested on: HCC-2998 colon
# [13] = tested on: SK-MEL-5 melanoma
# [14] = tested on: MOLT-4 leukemia
# [15] = tested on: MALME-3M melanoma
# [16] = tested on: SN12C renal
# [17] = tested on: ACHN renal
# [18] = tested on: UACC-257 melanoma
# [19] = tested on: UACC-62 melanoma
# [20] = tested on: NCI-H460 NSCLC
# [21] = tested on: HS 578T breast
# [22] = tested on: RXF 393 renal
# [23] = tested on: IGROV1 ovarian
# [24] = tested on: OVCAR-3 ovarian
# [25] = tested on: SF-268 CNS
# [26] = tested on: NCI-H322M lung
# [27] = tested on: NCI/ADR-RES ovarian
# [28] = tested on: EKVX NSCLC
# [29] = tested on: HOP-92 NSCLC
# [30] = tested on: NCI-H522 lung
# [31] = tested on: A549 NSCLC
# [32] = tested on: HL-60(TB) leukemia
# [33] = tested on: 786-0 renal
# [34] = tested on: HT29 colon
# [35] = tested on: TK-10 renal
# [36] = tested on: OVCAR-4 ovarian
# [37] = tested on: SW-620 colon
# [38] = tested on: SNB-75 CNS
# [39] = tested on: OVCAR-8 ovarian
# [40] = tested on: CCRF-CEM leukemia
# [41] = tested on: MDA-MB-435 melanoma
# [42] = tested on: MDA-MB-468 breast
# [43] = tested on: SF-539 CNS
# [44] = tested on: SNB-19 CNS
# [45] = tested on: T-47D breast
# [46] = tested on: MDA-MB-231 breast
# [47] = tested on: SR leukemia
# [48] = tested on: SK-MEL-28 melanoma
# [49] = tested on: BT-549 breast
# [50] = tested on: U251 glioblastoma
# [51] = tested on: SK-MEL-2 melanoma
# [52] = tested on: NCI-H23 lung
# [53] = tested on: A498 renal
# [54] = tested on: DU-145 prostate
# [55] = tested on: COLO 205 colon
# [56] = tested on: KM12 colon
# [57] = tested on: LOX IMVI melanoma
# [58] = tested on: HCT-116 colon
# [59] = tested on: UO-31 renal
compound,measurement,setting,value
CC(C)(C)c1ccc(Oc2ccc(N)cn2)cc1,GI50,[1],24.1 µM
same,TGI,[1],> 100 µM
same,GI50,[2],> 100 µM
same,TGI,[2],> 100 µM
same,GI50,[3],> 100 µM
same,TGI,[3],> 100 µM
same,GI50,[4],33 µM
same,TGI,[4],> 100 µM
same,GI50,[5],29.4 µM
same,TGI,[5],> 100 µM
same,GI50,[6],> 100 µM
same,TGI,[6],> 100 µM
same,GI50,[7],74.2 µM
same,TGI,[7],> 100 µM
same,GI50,[8],0.231 µM
same,TGI,[8],0.563 µM
same,GI50,[9],10.8 µM
same,TGI,[9],52.3 µM
same,GI50,[10],43.5 µM
same,TGI,[10],> 100 µM
same,GI50,[11],> 100 µM
same,TGI,[11],> 100 µM
same,GI50,[12],17 µM
same,TGI,[12],48.6 µM
same,GI50,[13],22.3 µM
same,TGI,[13],51.8 µM
same,GI50,[14],4.83 µM
same,TGI,[14],19.3 µM
same,GI50,[15],26.9 µM
same,TGI,[15],72.9 µM
same,GI50,[16],57.7 µM
same,TGI,[16],> 100 µM
same,GI50,[17],> 100 µM
same,TGI,[17],> 100 µM
same,GI50,[18],36 µM
same,TGI,[18],> 100 µM
same,GI50,[19],> 100 µM
same,TGI,[19],> 100 µM
same,GI50,[20],32.7 µM
same,TGI,[20],> 100 µM
same,GI50,[21],29.5 µM
same,TGI,[21],> 100 µM
same,GI50,[22],21.8 µM
same,TGI,[22],66.2 µM
same,GI50,[23],97.3 µM
same,TGI,[23],> 100 µM
same,GI50,[24],24.9 µM
same,TGI,[24],> 100 µM
same,GI50,[25],26 µM
same,TGI,[25],> 100 µM
same,GI50,[26],68.2 µM
same,TGI,[26],> 100 µM
same,GI50,[27],36.4 µM
same,TGI,[27],> 100 µM
same,GI50,[28],44.2 µM
same,TGI,[28],> 100 µM
same,GI50,[29],34.8 µM
same,TGI,[29],> 100 µM
same,GI50,[30],14.7 µM
same,TGI,[30],39.9 µM
same,GI50,[31],20.4 µM
same,TGI,[31],> 100 µM
same,GI50,[32],0.479 µM
same,TGI,[32],2.82 µM
same,GI50,[33],24.7 µM
same,TGI,[33],> 100 µM
same,GI50,[34],24.9 µM
same,TGI,[34],57.7 µM
same,GI50,[35],93 µM
same,TGI,[35],> 100 µM
same,GI50,[36],28.1 µM
same,TGI,[36],> 100 µM
same,GI50,[37],85.7 µM
same,TGI,[37],> 100 µM
same,GI50,[38],22.1 µM
same,TGI,[38],> 100 µM
same,GI50,[39],52.1 µM
same,TGI,[39],> 100 µM
same,GI50,[40],0.302 µM
same,TGI,[40],1.24 µM
same,GI50,[41],92.2 µM
same,TGI,[41],> 100 µM
same,GI50,[42],21 µM
same,TGI,[42],57 µM
same,GI50,[43],43.4 µM
same,TGI,[43],> 100 µM
same,GI50,[44],> 100 µM
same,TGI,[44],> 100 µM
same,GI50,[45],31.2 µM
same,TGI,[45],> 100 µM
same,GI50,[46],28.4 µM
same,TGI,[46],> 100 µM
same,GI50,[47],14.3 µM
same,TGI,[47],32.8 µM
same,GI50,[48],> 100 µM
same,TGI,[48],> 100 µM
same,GI50,[49],12.6 µM
same,TGI,[49],65 µM
same,GI50,[50],35.8 µM
same,TGI,[50],> 100 µM
same,GI50,[51],> 100 µM
same,TGI,[51],> 100 µM
same,GI50,[52],29.1 µM
same,TGI,[52],85.8 µM
same,GI50,[53],46.5 µM
same,TGI,[53],> 100 µM
same,GI50,[54],64.3 µM
same,TGI,[54],> 100 µM
same,GI50,[55],38.6 µM
same,TGI,[55],86.6 µM
same,GI50,[56],44.3 µM
same,TGI,[56],> 100 µM
CNC(=O)c1cc(Oc2ccc(NC(=O)Nc3ccc(Cl)c(C(F)(F)F)c3)c(F)c2)ccn1,GI50,[1],2.67 µM
same,TGI,[1],7.59 µM
same,GI50,[2],1.69 µM
same,TGI,[2],8.56 µM
same,GI50,[3],3.2 µM
same,TGI,[3],9.43 µM
same,GI50,[4],2.98 µM
same,TGI,[4],10.1 µM
same,GI50,[5],2.52 µM
same,TGI,[5],9.38 µM
same,GI50,[6],2.13 µM
same,TGI,[6],6.02 µM
same,GI50,[7],1.93 µM
same,TGI,[7],5.47 µM
same,GI50,[8],1.73 µM
same,TGI,[8],3.3 µM
same,GI50,[9],1.93 µM
same,GI50,[10],3.79 µM
same,TGI,[10],16.3 µM
same,GI50,[11],5.79 µM
same,TGI,[11],28.5 µM
same,GI50,[12],2.04 µM
same,TGI,[12],5.98 µM
same,GI50,[13],1.6 µM
same,TGI,[13],3.86 µM
same,GI50,[14],1.7 µM
same,TGI,[14],3.2 µM
same,GI50,[15],0.719 µM
same,TGI,[15],3.09 µM
same,GI50,[16],3.16 µM
same,TGI,[16],11 µM
same,GI50,[17],3.38 µM
same,TGI,[17],25.1 µM
same,GI50,[18],2.45 µM
same,TGI,[18],9.07 µM
same,GI50,[19],2.09 µM
same,TGI,[19],7.66 µM
same,GI50,[20],3.08 µM
same,TGI,[20],10.7 µM
same,GI50,[57],1.39 µM
same,TGI,[57],3.99 µM
same,GI50,[21],2.33 µM
same,TGI,[21],7.35 µM
same,GI50,[22],2.49 µM
same,TGI,[22],4.98 µM
same,GI50,[23],2.8 µM
same,TGI,[23],14.5 µM
same,GI50,[24],4.55 µM
same,TGI,[24],12.6 µM
same,GI50,[25],4.28 µM
same,TGI,[25],14.4 µM
same,GI50,[26],2.66 µM
same,TGI,[26],6.21 µM
same,GI50,[27],2.06 µM
same,TGI,[27],5.1 µM
same,GI50,[28],2.12 µM
same,TGI,[28],5.43 µM
same,GI50,[29],2.27 µM
same,TGI,[29],5.43 µM
same,GI50,[30],2.83 µM
same,TGI,[30],> 24.7 µM
same,GI50,[31],2.66 µM
same,TGI,[31],8.57 µM
same,GI50,[32],0.734 µM
same,TGI,[32],1.97 µM
same,GI50,[33],2.47 µM
same,TGI,[33],7.76 µM
same,GI50,[35],3.49 µM
same,TGI,[35],76.2 µM
same,GI50,[36],2.55 µM
same,TGI,[36],7.25 µM
same,GI50,[37],2.97 µM
same,TGI,[37],13.9 µM
same,GI50,[38],5.14 µM
same,TGI,[38],12.9 µM
same,GI50,[39],2.17 µM
same,TGI,[39],5.79 µM
same,GI50,[40],3.4 µM
same,TGI,[40],8.05 µM
same,GI50,[41],3.14 µM
same,TGI,[41],14.6 µM
same,GI50,[42],1.72 µM
same,TGI,[42],4.31 µM
same,GI50,[43],2.13 µM
same,TGI,[43],6.63 µM
same,GI50,[44],4.65 µM
same,TGI,[44],> 88.5 µM
same,GI50,[45],1.56 µM
same,TGI,[45],6.73 µM
same,GI50,[46],1.35 µM
same,TGI,[46],3.47 µM
same,GI50,[47],1.47 µM
same,TGI,[47],2.82 µM
same,GI50,[48],1.39 µM
same,TGI,[48],8.75 µM
same,GI50,[49],3.2 µM
same,TGI,[49],7.34 µM
same,GI50,[58],1.77 µM
same,TGI,[58],8.6 µM
same,GI50,[50],3.06 µM
same,TGI,[50],11 µM
same,GI50,[52],1.34 µM
same,TGI,[52],3.43 µM
same,GI50,[59],2.02 µM
same,TGI,[59],5.44 µM
same,GI50,[53],3.66 µM
same,TGI,[53],21.7 µM
same,GI50,[54],3.02 µM
same,TGI,[54],9.32 µM
same,GI50,[55],1.64 µM
same,TGI,[55],4.7 µM
same,GI50,[56],3.03 µM
same,TGI,[56],15.5 µM
